# Results filed as inconclusive are left out.
# Tested on: U2OS PGC1a acetylation AlphaLISA, overnight
# Assay: activators raising PGC1a acetylation in cells, dose response, cell-based, cherry-picked samples, set 6 (AID 720513);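 further: cells made to overexpress flag tagged PGC1a plus GCN5 acetyltransferase by viral infection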
row,SMILES,AC40 [µM]
1,O=C(NCCC1CCCCN1S(=O)(=O)c1cccs1)C(=O)Nc1ccc(F)cc1F (stereo unspecified),9.6
2,CC(C)NC(=O)N(C)C[C@H]1OCCCC[C@@H](C)Oc2ccc(NC(=O)Cc3ccccc3)cc2C(=O)N([C@@H](C)CO)C[C@H]1C,16.4
3,O=C(Nc1cccnc1)c1ccc(Br)s1,0.601
4,COc1ccc(CN2CCn3ncc(C(=O)Nc4ccccc4)c3C2=O)cc1,13.4
5,Cc1cccc(OC2(c3ccccc3)OC(=O)c3ccccc32)c1C (stereo unspecified),3.37
6,C=CCn1c(SCC(=O)NC(=O)NCc2ccco2)nc2sc(CC)cc2c1=O,11.3
7,COc1ccccc1/C=C1\SC(=O)N(CCC(=O)NCCCn2ccnc2)C1=O,2.07
8,C/C=C(/C)C(=O)O[C@@H]1c2cc(OC)c(OC)c(OC)c2-c2c(cc3c(c2OC)OCO3)C[C@H](C)[C@]1(C)O,1.48
9,C[C@@H]1CN([C@@H](C)CO)C(=O)Cc2cc(NC(=O)Cc3ccccc3)ccc2O[C@H]1CN(C)C(=O)Nc1ccccc1,0.263
10,COc1ccc(N(C(=O)c2snc(C(N)=O)c2N)C(C(=O)NC2CCCC2)c2ccco2)c(OC)c1 (stereo unspecified),3.85
11,COc1ccc(-c2nc3c(C)cc(Br)cn3c2Cc2ccc(C)cc2)cc1OC,8.31
12,CCCCn1c(CN(Cc2ccccc2)Cc2ccccc2)nc2c1c(=O)n(C)c(=O)n2C,3.88
13,OC(COc1ccc(CNCCc2ccc(C(F)(F)F)cc2)cc1)CN1CCCCC1 (stereo unspecified),0.9
14,C[C@@H]1CN([C@H](C)CO)C(=O)c2c(c3ccccc3n2C)-c2ccccc2CO[C@@H]1CN(C)C(=O)Nc1ccccc1C(F)(F)F,3.71
15,COC(=O)C(Nc1ccccc1Cl)(c1cc(C)c(O)c(C)c1)C(F)(F)F (stereo unspecified),0.641
16,CCCCN=C1NC(=O)C(CC(=O)Nc2ccc(Cl)cc2)S1 (stereo unspecified),3.53
17,CCCCCOC(=O)Cc1c(O)c2ccccc2n(C)c1=O,9.64
18,O=C(NCc1cccnc1)c1ccc(NC(=O)c2ccc(Br)cc2)cc1,< 0.16
19,COc1ccc(C(CNC(=O)c2cccc(N(C)C)c2)N2CCCC2)cc1 (stereo unspecified),5.4
20,CC(=O)Nc1sc2c(c1-c1nc3ccccc3s1)CN(C(C)C)CC2,1.45
21,CCC(C)(C)n1nnnc1C(c1ccccc1OC)N1CCSCC1 (stereo unspecified),1.45
22,COc1ccc(C2CC(=O)N(C)c3ccccc3S2)cc1 (stereo unspecified),6.61
23,Cc1cc2oc(=O)cc(CN3CCC(C)CC3)c2cc1C,5.71
24,C[C@@H]1CN([C@@H](C)CO)C(=O)c2c(c3ccccc3n2C)-c2ccccc2CO[C@@H]1CN(C)C(=O)Nc1ccc2c(c1)OCO2,7.87
25,O=C(Cc1ccc(Cl)cc1)c1c[nH]c(C(=O)NCc2cccnc2)c1,3.56
26,C[C@H]1CN([C@@H](C)CO)S(=O)(=O)c2ccc(C#CCN(C)C)cc2O[C@@H]1CN(C)Cc1ccc2c(c1)OCO2,4.76

row,SMILES,AC40 [µM]
1,C[C@@H]1CN([C@@H](C)CO)C(=O)c2c(c3ccccc3n2C)-c2ccccc2CO[C@@H]1CN(C)C(=O)Nc1cccc(C(F)(F)F)c1,10
2,CC1=CC(C)(C)N2C(=O)C3(SCC(=O)N3c3ccc(F)cc3)c3cc(C)cc1c32 (stereo unspecified),0.966
3,COc1ccc2nc3c(cc2c1)c(NC(=O)c1cccs1)nn3CC(C)C,5.35
4,Cc1ccc(-n2cccn2)c(CN2CCCC(C(=O)c3sccc3C)C2)c1 (stereo unspecified),9.08
5,Cc1ccc(CN(CC(O)COc2cccc3[nH]cc(C)c23)C(C)(C)C)cc1 (stereo unspecified),2.49
6,Cc1cccc(Nc2nnc(-c3ccc(C(=O)N4C[C@H]5C[C@H](C4)c4cccc(=O)n4C5)cc3)c3ccccc23)c1,11.2
7,CC(C)(C)c1ccc(C(=O)c2c[nH]c(C(=O)NCc3cccnc3)c2)cc1,1.23
8,CC(=O)Nc1ccc(NC(=O)CN(c2cccc([N+](=O)[O-])c2)S(C)(=O)=O)cc1,0.482
9,O=C(NCc1ccccc1)c1ccc(NC(=O)C2CC2)cc1,11.1
10,c1ccc(N2CCN(c3ccccc3)C2c2ccncc2)cc1,0.244
11,O=C(CCCc1nc(-c2ccccc2Cl)no1)NCc1cccnc1,3.78
12,CCOC(=O)C1=CC[C@@H](c2ccc([N+](=O)[O-])cc2)N(S(=O)(=O)c2ccc(C)cc2)[C@H]1c1ccccc1,5.13
13,COc1ccc2c(c1)CCc1c(C(=O)NCCCn3ccnc3)noc1-2,18.9
14,Nc1c(C(=O)c2ccccc2)sc2nsc(SCCN3CCCC3)c12,9.72
15,COc1ccc(S(=O)(=O)N2CCOCC2)cc1NC(=O)CCNC(=O)c1ccc(Cl)cc1,0.772
16,CCOc1ccccc1CN1CCN(C2CCC2)CC1CCO (stereo unspecified),6.23
17,CCOC(=O)c1sc2nc(C)nc(NCc3ccccc3OC)c2c1C,3.12
18,CCN(CC)CCOc1ccc(/C(=C(\Cl)c2ccccc2)c2ccccc2)cc1,3.01
19,COc1cccc(-c2ccc(C3[C@@H]4CN(Cc5ccccn5)C[C@H]3N4)cc2)c1 (stereo partly specified),13.5
20,Cc1c(C(=O)N2CCN(c3ccccn3)CC2)sc2ncnc(N3CCN(c4ccccc4)CC3)c12,10.9
21,Cc1ccccc1-c1ccc([C@@H]2[C@H](CO)N3CCCCN(C(=O)Nc4cccc(F)c4)C[C@@H]23)cc1,8.22
22,O=C(c1ccc(NC(=O)C2(c3ccccc3)CCOCC2)cc1)N1CCOCC1,16.6
23,O=C(c1cccs1)N1CCN(c2nnc(-c3ccccc3)c3ccccc23)CC1,1.65
24,O=C1NCN(c2ccccc2)C12CCN(C(c1cccc3ccccc13)c1nnnn1C1CCCCC1)CC2 (stereo unspecified),5.43
25,CCN(CC)C(=O)CSc1nnc2nnc3cc(Cl)ccc3n12,17.9

# Reference: PubChem BioAssay AID720513 (Broad Institute, 2013)
